Counter-ions that a name gives are not always drawn.
Legend:
hNav1.7 [1] = target: T1, hNav1.7 (Homo sapiens (Human), UniProt Q15858); experiment: Tritiated compound binding to membranes from cells expressing hNav1.7 and the β1 subunit, competitive binding (LBA, Ex. 243A); details: 100 pM [3H]compound, 18 h, room temperature
Protocol: Tritiated Compound Binding to Membranes Isolated from Cells that Heterologously Express hNav1.7 and the β1 Subunit
Preparation of membranes containing recombinantly expressed sodium channels: Frozen recombinant cell pellets were thawed on ice and diluted to 4 times the cell pellet weight with ice cold 50 mM Tris HCl, pH 7.4 buffer. The cell suspensions were homogenized on ice using a motorized glass dounce homogeniser. Homogenates were further diluted 8.4 times with ice cold 50 mM Tris HCl, pH 7.4 buffer and then centrifuged at 200×g at 4° C. for 15 min. The supernatants were collected and centrifuged at 10000×g at 4° C. for 50 min. […] The homogenized membranes were then processed through a syringe equipped with a 26 gauge needle. Protein concentrations were determined by Bradford Assay and the membranes were stored at −80° C.
Radioligand Binding Studies: Saturation experiments. A competitive NaV1.7 inhibitor having a methyl group was tritiated. Three tritiums were incorporated in place of methyl hydrogens to generate [^3H]compound. Binding of this radioligand was performed in 5 mL borosilicate glass test tubes at room temperature. […] Non-specific binding was determined in the presence of 1 μM unlabeled compound. After 18h, the reactants were filtered through GF/C glass fiber filters presoaked in 0.5% w/v polyethylene imine. […] [^3H]compound bound to filters was quantified by liquid scintillation counting.
Competitive binding experiments: Binding reactions were performed in 96-well polypropylene plates at room temperature for 18h. In 360 μL, membranes were incubated with 100 pM [^3H]compound and increasing concentrations of Test Compound. Non-specific binding was defined in the presence of 1 μM unlabeled compound. Reactions were transferred and filtered through 96-well glass fiber/C filter plates presoaked with 0.5% polyethylene imine. The filtered reactions were washed 5 times with 200 μL ice cold buffer containing 0.25% BSA. Bound radioactivity was determined by liquid scintillation counting.
Data Analysis: For saturation experiments, non-specific binding was subtracted from total binding to provide specific binding and these values were recalculated in terms of pmol ligand bound per mg protein. Saturation curves were constructed and dissociation constants were calculated using the single site ligand binding model: Beq=(Bmax*X)/(X+Kd), where Beq is the amount of ligand bound at equilibrium, Bmax is the maximum receptor density, Kd is the dissociation constant for the ligand, and X is the free ligand concentration. For competition studies percent inhibition was determined and IC50 values were calculated using a 4 parameter logistic model (% inhibition=(A+((B−A)/(1+((x/C)^D)))) using XLfit, where A and B are the maximal and minimum inhibition respectively, C is the IC50 concentration and D is the (Hill) slope.
Target sequence in this assay (Q15858 whole entry, looked up): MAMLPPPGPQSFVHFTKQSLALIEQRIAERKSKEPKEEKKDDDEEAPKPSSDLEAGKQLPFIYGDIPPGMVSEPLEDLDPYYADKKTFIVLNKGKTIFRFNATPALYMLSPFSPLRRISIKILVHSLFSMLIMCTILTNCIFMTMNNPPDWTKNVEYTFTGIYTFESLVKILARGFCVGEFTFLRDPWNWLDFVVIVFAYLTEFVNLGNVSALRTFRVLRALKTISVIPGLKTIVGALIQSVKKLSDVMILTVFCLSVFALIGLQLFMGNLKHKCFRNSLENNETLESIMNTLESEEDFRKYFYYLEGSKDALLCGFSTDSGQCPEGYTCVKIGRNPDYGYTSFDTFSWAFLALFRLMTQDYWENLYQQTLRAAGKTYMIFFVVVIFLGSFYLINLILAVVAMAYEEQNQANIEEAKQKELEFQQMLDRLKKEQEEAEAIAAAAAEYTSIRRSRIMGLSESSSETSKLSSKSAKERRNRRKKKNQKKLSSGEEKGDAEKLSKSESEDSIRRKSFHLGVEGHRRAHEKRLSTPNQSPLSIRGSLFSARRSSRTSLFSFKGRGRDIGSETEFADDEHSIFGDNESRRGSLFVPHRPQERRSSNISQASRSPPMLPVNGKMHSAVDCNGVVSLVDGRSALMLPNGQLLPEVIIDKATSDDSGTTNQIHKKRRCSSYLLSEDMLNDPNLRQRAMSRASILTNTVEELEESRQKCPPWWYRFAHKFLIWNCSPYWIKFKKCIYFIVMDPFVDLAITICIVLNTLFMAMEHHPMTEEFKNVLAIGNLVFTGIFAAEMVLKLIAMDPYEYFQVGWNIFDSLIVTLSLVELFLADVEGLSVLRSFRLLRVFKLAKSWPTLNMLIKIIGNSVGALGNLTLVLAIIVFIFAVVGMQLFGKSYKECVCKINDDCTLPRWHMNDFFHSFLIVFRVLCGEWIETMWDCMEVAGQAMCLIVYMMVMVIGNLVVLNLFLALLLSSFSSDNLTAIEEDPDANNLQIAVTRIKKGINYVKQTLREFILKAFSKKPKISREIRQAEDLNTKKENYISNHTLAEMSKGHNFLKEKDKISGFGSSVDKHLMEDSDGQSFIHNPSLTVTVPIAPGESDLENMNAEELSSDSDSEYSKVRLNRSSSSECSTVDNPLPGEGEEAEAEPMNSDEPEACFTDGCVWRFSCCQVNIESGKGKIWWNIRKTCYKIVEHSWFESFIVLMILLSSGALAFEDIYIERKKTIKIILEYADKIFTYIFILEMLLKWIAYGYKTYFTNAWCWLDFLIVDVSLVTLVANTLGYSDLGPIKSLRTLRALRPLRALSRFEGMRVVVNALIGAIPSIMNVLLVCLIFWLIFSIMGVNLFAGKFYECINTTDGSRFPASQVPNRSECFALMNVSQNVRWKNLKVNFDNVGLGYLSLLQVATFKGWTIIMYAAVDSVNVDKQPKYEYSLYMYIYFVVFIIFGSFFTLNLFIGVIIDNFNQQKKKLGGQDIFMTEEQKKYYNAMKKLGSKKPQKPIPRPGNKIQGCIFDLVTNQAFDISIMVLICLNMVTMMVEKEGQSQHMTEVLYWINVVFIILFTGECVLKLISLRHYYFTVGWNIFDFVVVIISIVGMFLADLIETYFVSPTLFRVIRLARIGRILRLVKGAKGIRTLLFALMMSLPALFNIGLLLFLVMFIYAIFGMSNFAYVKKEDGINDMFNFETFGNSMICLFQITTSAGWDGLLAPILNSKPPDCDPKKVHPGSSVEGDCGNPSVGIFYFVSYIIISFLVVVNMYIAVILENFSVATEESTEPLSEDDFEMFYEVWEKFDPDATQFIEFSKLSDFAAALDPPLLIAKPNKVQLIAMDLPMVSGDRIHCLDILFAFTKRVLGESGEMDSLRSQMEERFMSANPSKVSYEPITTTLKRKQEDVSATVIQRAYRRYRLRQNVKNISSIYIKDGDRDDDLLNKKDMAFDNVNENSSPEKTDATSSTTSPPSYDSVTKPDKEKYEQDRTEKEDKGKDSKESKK
Target sequence in this assay (Q07699 whole entry partner, looked up): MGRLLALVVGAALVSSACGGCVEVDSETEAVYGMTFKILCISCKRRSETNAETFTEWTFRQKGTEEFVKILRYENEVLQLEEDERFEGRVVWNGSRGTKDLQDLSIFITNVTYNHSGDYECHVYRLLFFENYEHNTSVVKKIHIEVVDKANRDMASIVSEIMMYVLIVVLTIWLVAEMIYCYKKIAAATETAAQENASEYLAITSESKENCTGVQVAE

hNav1.7 [2] = target: T1, hNav1.7; experiment: Tritiated compound binding to membranes from cells expressing hNav1.7 and the β1 subunit, modified protocol (LBA, Ex. 243B); details: 300 pM [3H]compound, room temperature, read-out: Nav1.7 LBA (Ex. 243B) IC50
Target sequence in this assay (Q15858 whole entry, looked up): as the sequence (Q15858 whole entry, looked up) above
Target sequence in this assay (Q07699 whole entry partner, looked up): as the sequence (Q07699 whole entry partner, looked up) above

hNav1.7 [3] = target: T1, hNav1.7; experiment: Patch voltage clamp electrophysiology assay (EP), Syncropatch 384PE, CHO cells expressing Nav1.7; format: cell-based; details: read-out: EP_SP hNav1.7 (Ex. 243B) IC50
Method in brief: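 Automated whole-cell patch clamp on CHO cells stably expressing human Nav1.7, CsCl/EGTA internal and NMDG/80 mM Na+ external (pH 7.4). From −50 mV holding, −10 mV step, 20 ms recovery at −150 mV, then second −10 mV pulse where block is measured; inhibition after 7.5 min compound incubation.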
Target sequence in this assay (Q15858 other isoform, or with tags, fused parts or gaps): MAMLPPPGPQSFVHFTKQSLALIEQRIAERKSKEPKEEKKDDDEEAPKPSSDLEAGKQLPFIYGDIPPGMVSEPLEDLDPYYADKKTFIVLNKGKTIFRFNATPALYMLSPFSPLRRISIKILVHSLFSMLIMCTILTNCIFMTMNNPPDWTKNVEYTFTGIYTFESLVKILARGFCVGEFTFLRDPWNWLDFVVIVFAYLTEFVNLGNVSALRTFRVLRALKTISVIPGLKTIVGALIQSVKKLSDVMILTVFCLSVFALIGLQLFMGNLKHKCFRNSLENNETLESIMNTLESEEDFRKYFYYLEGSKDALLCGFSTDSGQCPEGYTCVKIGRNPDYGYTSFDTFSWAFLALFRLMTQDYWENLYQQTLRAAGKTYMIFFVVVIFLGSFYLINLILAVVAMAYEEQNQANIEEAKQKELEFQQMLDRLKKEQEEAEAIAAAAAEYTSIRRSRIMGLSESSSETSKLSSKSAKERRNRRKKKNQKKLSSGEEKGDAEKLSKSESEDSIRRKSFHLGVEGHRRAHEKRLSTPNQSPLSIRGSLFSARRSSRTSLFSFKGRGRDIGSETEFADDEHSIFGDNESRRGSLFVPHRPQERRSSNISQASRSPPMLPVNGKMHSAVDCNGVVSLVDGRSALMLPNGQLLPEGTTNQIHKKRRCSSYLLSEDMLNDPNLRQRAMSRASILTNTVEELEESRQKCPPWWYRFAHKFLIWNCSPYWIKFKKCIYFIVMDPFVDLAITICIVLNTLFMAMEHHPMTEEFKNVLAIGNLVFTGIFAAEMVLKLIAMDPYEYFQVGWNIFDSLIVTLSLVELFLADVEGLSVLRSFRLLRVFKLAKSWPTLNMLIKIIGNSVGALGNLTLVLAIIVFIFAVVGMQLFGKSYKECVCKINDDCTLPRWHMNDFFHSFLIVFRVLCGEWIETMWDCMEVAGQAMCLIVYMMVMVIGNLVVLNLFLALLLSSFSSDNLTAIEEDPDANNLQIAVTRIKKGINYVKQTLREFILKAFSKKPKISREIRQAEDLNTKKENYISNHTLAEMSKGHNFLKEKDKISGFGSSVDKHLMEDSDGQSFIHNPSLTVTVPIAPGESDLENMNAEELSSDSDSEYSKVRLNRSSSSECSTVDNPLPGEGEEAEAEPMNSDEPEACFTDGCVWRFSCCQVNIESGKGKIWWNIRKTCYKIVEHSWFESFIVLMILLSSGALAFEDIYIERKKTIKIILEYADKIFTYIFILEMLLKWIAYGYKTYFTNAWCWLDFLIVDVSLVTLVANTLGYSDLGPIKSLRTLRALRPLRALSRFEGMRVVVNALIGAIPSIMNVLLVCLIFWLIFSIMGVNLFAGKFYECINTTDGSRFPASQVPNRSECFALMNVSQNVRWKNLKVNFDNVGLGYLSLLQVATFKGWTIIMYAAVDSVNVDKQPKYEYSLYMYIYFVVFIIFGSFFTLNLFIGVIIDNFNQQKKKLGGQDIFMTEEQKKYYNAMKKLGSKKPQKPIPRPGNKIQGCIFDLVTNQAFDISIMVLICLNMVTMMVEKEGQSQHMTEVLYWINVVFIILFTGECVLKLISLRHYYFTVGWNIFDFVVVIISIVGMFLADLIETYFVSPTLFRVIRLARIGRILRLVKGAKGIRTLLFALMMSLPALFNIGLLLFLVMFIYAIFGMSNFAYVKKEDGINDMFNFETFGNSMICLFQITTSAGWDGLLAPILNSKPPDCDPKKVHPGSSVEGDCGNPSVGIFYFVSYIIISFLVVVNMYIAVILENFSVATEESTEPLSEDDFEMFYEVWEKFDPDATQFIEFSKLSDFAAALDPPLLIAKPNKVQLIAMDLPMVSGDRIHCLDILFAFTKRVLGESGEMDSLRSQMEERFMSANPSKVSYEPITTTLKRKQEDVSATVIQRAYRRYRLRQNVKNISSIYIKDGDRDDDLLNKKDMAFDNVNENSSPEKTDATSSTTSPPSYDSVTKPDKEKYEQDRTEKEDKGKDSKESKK

[4] = read-out: Nav1.7 LBA (Ex. 243A) IC50
[5] = holding potential -50 mV, […] compound incubation

Work on CN(C)[C@H]1C[C@H](C(F)(F)F)CC[C@@H]1Nc1cc(F)c(S(=O)(=O)Nc2nccs2)cc1Cl [Example 77, 5-chloro-4-(((1S,2S,4R)-2-(dimethylamino)-4-(trifluoromethyl)cyclohexyl)amino)-2-fluoro-N-(thiazol-2-yl)benzenesulfonamide] yielded an IC50 (hNav1.7 [1]; [4]) of 43.2 nM.

Work on CN[C@H]1CCCC[C@@H]1Nc1cc(F)c(S(=O)(=O)Nc2cccc(F)n2)cc1Cl [Example 74, 5-chloro-2-fluoro-N-(6-fluoropyridin-2-yl)-4-(((1S,2S)-2-(methylamino)cyclohexyl)amino)benzenesulfonamide] yielded an IC50 (hNav1.7 [1]; [4]) of 91.7 nM.

For CN(C)[C@@H]1CC=C(C(F)(F)F)C[C@H]1Nc1cc(F)c(S(=O)(=O)Nc2nccs2)cc1Cl [Example 48, 5-chloro-4-(((1R,6R)-6-(dimethylamino)-3-(trifluoromethyl)cyclohex-3-en-1-yl)amino)-2-fluoro-N-(thiazol-2-yl)benzenesulfonamide formate], the IC50 (hNav1.7 [1]; [4]) was 127 nM.

Work on CN(C)[C@H]1CCCC[C@@H]1Nc1cc(F)c(S(=O)(=O)Nc2cscn2)cc1Cl [Example 46, 5-chloro-4-(((1S,2S)-2-(dimethylamino)cyclohexyl)amino)-2-fluoro-N-(thiazol-4-yl)benzenesulfonamide] yielded an IC50 (hNav1.7 [1]; [4]) of 770 nM.

Work on CN(C)[C@H]1C[C@@H](C(F)(F)F)CC[C@@H]1Nc1cc(F)c(S(=O)(=O)Nc2nccs2)cc1Cl [Example 82, 5-chloro-4-(((1S,2S,4S)-2-(dimethylamino)-4-(trifluoromethyl)cyclohexyl)amino)-2-fluoro-N-(thiazol-2-yl)benzenesulfonamide] yielded an IC50 (hNav1.7 [1]; [4]) of 3.35 nM.

Compound CN(C)[C@H]1CCCC[C@@H]1Nc1cc(F)c(S(=O)(=O)Nc2nccs2)cc1C(F)(F)F [Example 65, 4-(((1S,2S)-2-(dimethylamino)cyclohexyl)amino)-2-fluoro-N-(thiazol-2-yl)-5-(trifluoromethyl)benzenesulfonamide] has an IC50 (hNav1.7 [1]; [4]) of 29.3 nM.

Work on CNC(=O)CN(C)[C@H]1CCCC[C@@H]1Nc1cc(F)c(S(=O)(=O)Nc2nccs2)cc1Cl [Example 80, 2-(((1S,2S)-2-((2-chloro-5-fluoro-4-(N-(thiazol-2-yl)sulfamoyl)phenyl)amino)cyclohexyl)(methyl)amino)-N-methylacetamide formate] yielded an IC50 (hNav1.7 [1]; [4]) of 122 nM.

CCN(C)[C@H]1CCCC[C@@H]1Nc1cc(F)c(S(=O)(=O)Nc2nccs2)cc1Cl [Example 18, 5-chloro-4-[[(1S,2S)-2-[ethyl(methyl)amino]cyclohexyl]amino]-2-fluoro-N-thiazol-2-yl-benzenesulfonamide] gave an IC50 (hNav1.7 [1]; read-out: Nav1.7 (LBA) (Ex. 243A)) of 16.8 nM.

Compound CN(C)[C@H]1CC[C@@H](c2cccc(C(F)(F)F)c2)C[C@@H]1Nc1cc(F)c(S(=O)(=O)Nc2nccs2)cc1Cl [Example 88, 5-chloro-4-(((1S,2S,5R)-2-(dimethylamino)-5-(3-(trifluoromethyl)phenyl)cyclohexyl)amino)-2-fluoro-N-(thiazol-2-yl)benzenesulfonamide] has an IC50 (hNav1.7 [1]; [4]) of 201 nM.

Work on O=S(=O)(Nc1nccs1)c1cc(Cl)c(N[C@H]2CCCC[C@@H]2N2CC3CC3C2)cc1F (stereo partly drawn) [Example 160, 4-(((1S,2S)-2-(3-azabicyclo[3.1.0]hexan-3-yl)cyclohexyl)amino)-5-chloro-2-fluoro-N-(thiazol-2-yl)benzenesulfonamide] yielded an IC50 (hNav1.7 [2]) of 20.3 nM and an IC50 (hNav1.7 [3]) of 2.27 nM.

With CN(C)[C@H]1CCC(F)C[C@@H]1Nc1cc(F)c(S(=O)(=O)Nc2nccs2)cc1Cl (stereo partly drawn) [Example 191, 5-chloro-4-(((1S,2S)-2-(dimethylamino)-5-fluorocyclohexyl)amino)-2-fluoro-N-(thiazol-2-yl)benzenesulfonamide formate] the IC50 (hNav1.7 [2]) was 777 nM and the IC50 (hNav1.7 [3]; [5]) was 39.4 nM.

Compound CN([C@H]1C[C@H](O)C1)[C@H]1CCCC[C@@H]1Nc1cc(F)c(S(=O)(=O)Nc2nccs2)cc1Cl [Example 157, 5-Chloro-2-fluoro-4-(((1S,2S)-2-((trans-3-hydroxycyclobutyl)(methyl)amino)cyclohexyl)amino)-N-(thiazol-2-yl)benzenesulfonamide formate] has an IC50 (hNav1.7 [2]) of 337 nM and an IC50 (hNav1.7 [3]; [5]) of 24.1 nM.

CN(CCO)[C@H]1C[C@@H](C(F)(F)F)CC[C@@H]1Nc1cc(F)c(S(=O)(=O)Nc2cccc(F)n2)cc1Cl [Example 158, 5-chloro-2-fluoro-N-(6-fluoropyridin-2-yl)-4-(((1S,2S,4S)-2-((2-hydroxyethyl)(methyl)amino)-4-(trifluoromethyl)cyclohexyl)amino)benzenesulfonamide formate] gave an IC50 (hNav1.7 [2]) of 5.96 nM and an IC50 (hNav1.7 [3]; [5]) of 2.71 nM.

For CN(CC(O)CF)[C@H]1CCCC[C@@H]1Nc1cc(F)c(S(=O)(=O)Nc2nccs2)cc1Cl (single isomer, unassigned) [Example 118], the IC50 (hNav1.7 [2]) was 242 nM and the IC50 (hNav1.7 [3]; [5]) was 8.51 nM.

CN(CC(O)C(F)F)[C@H]1CCCC[C@@H]1Nc1cc(F)c(S(=O)(=O)Nc2nccs2)cc1Cl (single isomer, unassigned) [Example 127] showed an IC50 (hNav1.7 [2]) of 61.5 nM and an IC50 (hNav1.7 [3]; [5]) of 6.58 nM.

For CN(C)[C@H]1C[C@H]2C[C@H]2C[C@@H]1Nc1cc(F)c(S(=O)(=O)Nc2nccs2)cc1Cl [Example 214, 5-Chloro-4-(((1S,3S,4S,6R)-4-(dimethylamino)bicyclo[4.1.0]heptan-3-yl)amino)-2-fluoro-N-(thiazol-2-yl)benzenesulfonamide], the IC50 (hNav1.7 [2]) was 53.1 nM and the IC50 (hNav1.7 [3]; [5]) was 2.09 nM.

CN(C)[C@@H]1C[C@@H]2C[C@@H]2C[C@H]1Nc1cc(F)c(S(=O)(=O)Nc2nccs2)cc1Cl [Example 215, 5-Chloro-4-(((1R,3R,4R,6S)-4-(dimethylamino)bicyclo[4.1.0]heptan-3-yl)amino)-2-fluoro-N-(thiazol-2-yl)benzenesulfonamide] showed an IC50 (hNav1.7 [2]) of 2000 nM and an IC50 (hNav1.7 [3]; [5]) of 286 nM.

CN(C(=O)C(C)(C)N(C)C)[C@H]1CCCC[C@@H]1Nc1cc(F)c(S(=O)(=O)Nc2nccs2)cc1Cl [Example 198, N-((1S,2S)-2-((2-Chloro-5-fluoro-4-(N-(thiazol-2-yl)sulfamoyl)phenyl)amino)-cyclohexyl)-2-(dimethylamino)-N,2-dimethylpropanamide] gave an IC50 (hNav1.7 [2]) of 817 nM and an IC50 (hNav1.7 [3]; [5]) of 65.8 nM.

CN(C)[C@H]1C[C@@H](C(F)(F)F)CC[C@@H]1Nc1cc(F)c(S(=O)(=O)Nc2ccncn2)cc1C1CCC1 [Example 203, 5-cyclobutyl-4-(((1S,2S,4S)-2-(dimethylamino)-4-(trifluoromethyl)cyclohexyl)amino)-2-fluoro-N-(pyrimidin-4-yl)benzenesulfonamide] gave an IC50 (hNav1.7 [2]) of 80.6 nM and an IC50 (hNav1.7 [3]; [5]) of 11.6 nM.

CN(C)[C@@H]1CC2C(C[C@H]1Nc1cc(F)c(S(=O)(=O)Nc3nccs3)cc1Cl)C2(F)F (stereo in doubt) [Example 210, 5-Chloro-4-(((1S,3R,4R,6R)-4-(dimethylamino)-7,7-difluorobicyclo[4.1.0]heptan-3-yl)amino)-2-fluoro-N-(thiazol-2-yl)benzenesulfonamide] was tested, and the IC50 (hNav1.7 [2]) was 2000 nM and the IC50 (hNav1.7 [3]; [5]) was 415 nM.

Work on CN1CCC[C@H]1C(=O)N(C)[C@H]1CCCC[C@@H]1Nc1cc(F)c(S(=O)(=O)Nc2nccs2)cc1Cl [Example 201, (S)—N-((1S,2S)-2-((2-chloro-5-fluoro-4-(N-(thiazol-2-yl)sulfamoyl)phenyl)amino)cyclohexyl)-N,1-dimethylpyrrolidine-2-carboxamide] yielded an IC50 (hNav1.7 [2]) of 308 nM and an IC50 (hNav1.7 [3]; [5]) of 29.6 nM.

CN(C)[C@@H]1C[C@H]2C[C@H]2C[C@H]1Nc1cc(F)c(S(=O)(=O)Nc2nccs2)cc1Cl [Example 217, 5-Chloro-4-(((1S,3R,4R,6R)-4-(dimethylamino)bicyclo[4.1.0]heptan-3-yl)amino)-2-fluoro-N-(thiazol-2-yl)benzenesulfonamide] was tested, and the IC50 (hNav1.7 [2]) was 1190 nM and the IC50 (hNav1.7 [3]; [5]) was 112 nM.

CN(CC(O)CF)[C@H]1CCCC[C@@H]1Nc1cc(F)c(S(=O)(=O)Nc2nccs2)cc1Cl (single isomer, unassigned) [Example 119] showed an IC50 (hNav1.7 [2]) of 184 nM and an IC50 (hNav1.7 [3]; [5]) of 10.7 nM.

Source: patent US10457654B2 (GENENTECH, INC., priority 2017, dated 2019)
